Results on seven compounds are retold here after patent publication US20240148821A1, “PHARMACEUTICAL USE OF CYCLIC PEPTIDE COMPOUND” (CHUGAI SEIYAKU KABUSHIKI KAISHA, priority 2021, published 2024).

Bridge positions count the residues as written; N and C are the ends. Square brackets hold non-standard residues; d marks the D form. Peptide text beside a SMILES is read from it. * marks the point of attachment. hPhe(3-Cl-4-CF3) = N[C@@H](CCc1ccc(C(F)(F)F)c(Cl)c1)C(=O)O; hPhe(3-F,4-CF3) = N[C@@H](CCc1ccc(C(F)(F)F)c(F)c1)C(=O)O; NMePhe(4-Cl) = CN[C@@H](Cc1ccc(Cl)cc1)C(=O)O; NMePhe(4-Me) = CN[C@@H](Cc1ccc(C)cc1)C(=O)O; Oic = O=C(O)[C@@H]1C[C@@H]2CCCC[C@@H]2N1; NMeGly(cPent) = CN[C@H](C(=O)O)C1CCCC1; Phe(3-I) = N[C@@H](Cc1cccc(I)c1)C(=O)O; Met(O2) = CS(=O)(=O)CC[C@H](N)C(=O)O; NMeCha = CN[C@@H](CC1CCCCC1)C(=O)O; NMehLeu = CN[C@@H](CCC(C)C)C(=O)O; NMeChg = CN[C@H](C(=O)O)C1CCCCC1; NMeD = CN[C@@H](CC(=O)O)C(=O)O; NMeL = CN[C@@H](CC(C)C)C(=O)O; NMePra = C#CC[C@H](NC)C(=O)O; NMeV = CN[C@H](C(=O)O)C(C)C; d(β3hA) = C[C@@H](N)CC(=O)O; N(iPr)Gly = CC(C)NCC(=O)O; NMeAib = CNC(C)(C)C(=O)O; Piperidide = C1CCN(*)CC1; Ac5c = NC1(C(=O)O)CCCC1; Aze = O=C(O)[C@@H]1CCN1; Sar = CNCC(=O)O

The experiment has as its system Human pancreatic cancer cell line AsPC-1 (G12D mutation Kras). The experiment is described as follows: AsPC-1 cell growth inhibition (AsPC-1 CGI). The class given is cell-based. The conditions noted are these: read-out: AsPC-1 cell growth inhibition, 50% growth inhibitory concentration (IC50 value); 96 hours, CellTiter-Glo, values classified in ranges.
Description: Test compounds were serially dilated with dimethyl sulfoxide, and 200 nL was then dispensed to a U-bottom 96-well plate using Labcyte Echo. […] The cell suspension was dispensed to a. plate containing a test compound at 100 μL per well and incubated at 37° C. in a 5% carbon dioxide gas incubator. 96 hours later, 80 μL of CellTiter-Glo (Promega) was added to each well and fluorescence was measured.
For `CC(C)C[C@H]1C(=O)N[C@@H](CCS(C)(=O)=O)C(=O)N(C)CC(=O)N(C)CC(=O)N(C)[C@@H](CC2CCCCC2)C(=O)N(C)CC(=O)N[C@@H](CCc2ccc(C(F)(F)F)c(Cl)c2)C(=O)N2CCC[C@H]2C(=O)NC2(CCCC2)C(=O)N(C)[C@@H](C2CCCCC2)C(=O)N(C)[C@H](C(=O)N2CCCCC2)CC(=O)N1C` [Compound 283] ([NMeL][Met(O2)][Sar][Sar][NMeCha][Sar][hPhe(3-Cl-4-CF3)]P[Ac5c][NMeChg][NMeD]-Piperidide; lactam N-11), the IC50 was above 500 nM.

Regarding `C#CC[C@H]1C(=O)N(C)[C@H](C(=O)N2CCCCC2)CC(=O)N(C)[C@@H](CC(C)C)C(=O)N[C@@H]([C@@H](C)CC)C(=O)N(C)CC(=O)N(C)CC(=O)N(C)[C@@H](CC2CCCCC2)C(=O)N(C)CC(=O)N[C@@H](CCc2ccc(C(F)(F)F)c(Cl)c2)C(=O)N2CCC[C@H]2C(=O)NC2(CCCC2)C(=O)N1C` [Compound 284] ([NMeL]I[Sar][Sar][NMeCha][Sar][hPhe(3-Cl-4-CF3)]P[Ac5c][NMePra][NMeD]-Piperidide; lactam N-11), the IC50 is above 500 nM.

As to `CC[C@H](C)[C@@H]1NC(=O)[C@H](CC(C)C)N(C)C(=O)C[C@@H](C(=O)N2CCCCC2)N(C)C(=O)[C@H](CC(C)C)NC(=O)C(C)(C)N(C)C(=O)[C@H](CC(C)C)NC(=O)[C@H](Cc2cccc(I)c2)NC(=O)CN(C)C(=O)[C@H](Cc2ccc(Cl)cc2)N(C)C(=O)CN(C)C(=O)CN(C)C1=O` [Compound 295] ([NMeL]I[Sar][Sar][NMePhe(4-Cl)][Sar][Phe(3-I)]L[NMeAib]L[NMeD]-Piperidide; lactam N-11), the IC50 is above 500 nM.

Consider `CC[C@H](C)[C@@H]1NC(=O)[C@H](CC(C)C)N(C)C(=O)C[C@@H](C(=O)N2CCCCC2)N(C)C(=O)[C@H](C2CCCCC2)N(C)C(=O)C2(CCCC2)NC(=O)[C@@H]2C[C@@H]3CCCC[C@@H]3N2C(=O)[C@H](CCc2ccc(C(F)(F)F)c(Cl)c2)NC(=O)CN(C)C(=O)[C@H](CC2CCCCC2)N(C)C(=O)CN(C)C(=O)CN(C)C1=O` [Compound 297] ([NMeL]I[Sar][Sar][NMeCha][Sar][hPhe(3-Cl-4-CF3)][Oic][Ac5c][NMeChg][NMeD]-Piperidide; lactam N-11), for which the IC50 is above 500 nM.

For the compound `CC[C@H](C)[C@@H]1NC(=O)[C@H](CC(C)C)N(C)C(=O)C[C@@H](C(=O)N2CCCCC2)NC(=O)[C@H](CC(C)C)N(C)C(=O)C2(CCCC2)NC(=O)[C@@H]2CCCN2C(=O)[C@H](CCc2ccc(C(F)(F)F)c(F)c2)NC(=O)CN(C)C(=O)[C@H](CC2CCCCC2)N(C)C(=O)CN(C)C(=O)CN(C)C1=O` [Compound 298] ([NMeL]I[Sar][Sar][NMeCha][Sar][hPhe(3-F,4-CF3)]P[Ac5c][NMeL]D-Piperidide; lactam N-11), the IC50 is above 500 nM.

Turning to `CC[C@H](C)[C@@H]1NC(=O)[C@H](CCC(C)C)N(C)C(=O)C[C@@H](C(=O)N(C)C)N(C)C(=O)[C@H](C2CCCC2)N(C)C(=O)C2(CCCC2)NC(=O)[C@@H]2CCCN2C(=O)[C@H](CCc2ccc(C(F)(F)F)c(Cl)c2)NC(=O)CN(C)C(=O)[C@H](Cc2ccc(C)cc2)N(C)C(=O)[C@@H]2CCN2C(=O)[C@H](C)NC1=O` [Compound 303] ([NMehLeu]IA[Aze][NMePhe(4-Me)][Sar][hPhe(3-Cl-4-CF3)]P[Ac5c][NMeGly(cPent)][NMeD]-NMe2; lactam N-11), the IC50 was at most 20 nM.

In the case of `CC[C@H](C)[C@@H]1NC(=O)[C@H](CC(C)C)N(C)C(=O)C[C@@H](C)NC(=O)[C@H](C(C)C)N(C)C(=O)C2(CCCC2)NC(=O)[C@@H]2CCCN2C(=O)[C@H](CCc2ccc(C(F)(F)F)c(Cl)c2)NC(=O)CN(C)C(=O)[C@H](CC2CCCCC2)N(C)C(=O)CN(C)C(=O)CN(C(C)C)C1=O` [Compound 305] (cyclo([Ac5c][NMeV][d(β3hA)][NMeL]I[N(iPr)Gly][Sar][NMeCha][Sar][hPhe(3-Cl-4-CF3)]P)), the IC50 was above 500 nM.
